Measurements: US9951028B2, “Agricultural chemicals” (REDAG CROP PROTECTION LTD, priority 2013, dated 2018)

Tests used:
[1] = test system: common chickweed, Stellaria media; assay: Herbicidal efficacy screen, potter tower spray, necrosis assessed; assay type: in vivo
Method: (§1) Compounds 22, 23 and 24 were screened for herbicidal efficacy against target plants: garden cress, Lepidium sativum, common chickweed, Stellaria media, and white mustard […] alba Plants were obtained as seeds and were grown to the 2-4 true leaf stage. Plants were grown under laboratory conditions, individually in seed trays. Each plant (in an approximately 3 cm diameter plug) was then detached from the tray for spraying. The compounds were screened at a range of five concentrations, diluted in acetone and TweenTM. A carrier only control was also conducted. Treatments were applied directly onto the plants, using a potter tower, at a specified application rate. One plant of each species was sprayed using a potter tower. The 3 different types of plants were placed on a 10 cm diameter platform directly beneath the potter sprayer and sprayed simultaneously. The growth of the plants and any Phytotoxicity effects were then assessed at intervals over 21 days, according to EPPO guideline PP1/135. Five replicas were performed for each treatment, for each species. In the tables below C represents a percentage increase in necrosis relative to the control of 0.1-50; B represents a percentage inhibition of 50-80; and A represents a percentage inhibition of 80-100.

[2] = test system: garden cress, Lepidium sativum; assay: as above; assay type: in vivo
Method: as §1

[3] = 12.5 g/ha, day 3 post application
[4] = 12.5 g/ha, day 4 post application
[5] = 12.5 g/ha, day 5 post application
[6] = 12.5 g/ha, day 7 post application
[7] = 12.5 g/ha, day 10 post application
[8] = 25 g/ha, day 1 post application
[9] = 25 g/ha, day 2 post application
[10] = 25 g/ha, day 3 post application
[11] = 25 g/ha, day 4 post application
[12] = 25 g/ha, day 5 post application
[13] = 25 g/ha, day 7 post application
[14] = 25 g/ha, day 10 post application
[15] = 50 g/ha, day 1 post application
[16] = 50 g/ha, day 2 post application
[17] = 50 g/ha, day 3 post application
[18] = 50 g/ha, day 4 post application
[19] = 50 g/ha, day 5 post application
[20] = 50 g/ha, day 7 post application
[21] = 50 g/ha, day 10 post application
[22] = 100 g/ha, day 1 post application
[23] = 100 g/ha, day 2 post application
[24] = 100 g/ha, day 3 post application
[25] = 100 g/ha, day 4 post application
[26] = 100 g/ha, day 5 post application
[27] = 100 g/ha, day 7 post application
[28] = 100 g/ha, day 10 post application
[29] = 200 g/ha, day 1 post application
[30] = 200 g/ha, day 2 post application
[31] = 200 g/ha, day 3 post application
[32] = 200 g/ha, day 4 post application
[33] = 200 g/ha, day 5 post application
[34] = 200 g/ha, day 7 post application
[35] = 200 g/ha, day 10 post application

How did the Average of necrosis [1, 3] turn out when `CC(C)C(C)S(=O)(=O)NCc1cc(-n2c(=O)cc(C(F)(F)F)n(C)c2=O)c(F)cc1Cl` (centres unmarked) [Compound 24, N-[[2-Chloro-4-fluoro-5-[3-methyl-2,6-dioxo-4-(trifluoromethyl)pyrimidin-1-yl]phenyl]methyl]-3-methyl-butane-2-sulfonamide] was run?
The Average of necrosis was “C (C represents a percentage increase in necrosis relative to the control of 0.1-50)”.

What about the Average of necrosis [1, 4] of the same molecule?
The Average of necrosis was “C (C represents a percentage increase in necrosis relative to the control of 0.1-50)”.

What about the Average of necrosis [1, 5] of the same molecule?
The Average of necrosis was “C (C represents a percentage increase in necrosis relative to the control of 0.1-50)”.

And the Average of necrosis [1, 6]?
The Average of necrosis was “C (C represents a percentage increase in necrosis relative to the control of 0.1-50)”.

And the Average of necrosis [1, 7]?
The Average of necrosis was “C (C represents a percentage increase in necrosis relative to the control of 0.1-50)”.

And the Average of necrosis [1, 8]?
Its Average of necrosis is “C (C represents a percentage increase in necrosis relative to the control of 0.1-50)”.

What about the Average of necrosis [1, 9] of the same molecule?
Its Average of necrosis is “C (C represents a percentage increase in necrosis relative to the control of 0.1-50)”.

And the Average of necrosis [1, 10]?
The Average of necrosis was “C (C represents a percentage increase in necrosis relative to the control of 0.1-50)”.

And the Average of necrosis [1, 11]?
Its Average of necrosis is “C (C represents a percentage increase in necrosis relative to the control of 0.1-50)”.

And the Average of necrosis [1, 12]?
The Average of necrosis was “C (C represents a percentage increase in necrosis relative to the control of 0.1-50)”.

What about the Average of necrosis [1, 13] of the same molecule?
The Average of necrosis was “C (C represents a percentage increase in necrosis relative to the control of 0.1-50)”.

What about the Average of necrosis [1, 14] of the same molecule?
Its Average of necrosis is “C (C represents a percentage increase in necrosis relative to the control of 0.1-50)”.

And the Average of necrosis [1, 15]?
The Average of necrosis was “C (C represents a percentage increase in necrosis relative to the control of 0.1-50)”.

And the Average of necrosis [1, 16]?
Its Average of necrosis is “C (C represents a percentage increase in necrosis relative to the control of 0.1-50)”.

What about the Average of necrosis [1, 17] of the same molecule?
The Average of necrosis was “C (C represents a percentage increase in necrosis relative to the control of 0.1-50)”.

And the Average of necrosis [1, 18]?
Its Average of necrosis is “C (C represents a percentage increase in necrosis relative to the control of 0.1-50)”.

And the Average of necrosis [1, 19]?
The Average of necrosis was “A (A represents a percentage inhibition of 80-100)”.

What about the Average of necrosis [1, 20] of the same molecule?
The Average of necrosis was “A (A represents a percentage inhibition of 80-100)”.

What about the Average of necrosis [1, 21] of the same molecule?
The Average of necrosis was “A (A represents a percentage inhibition of 80-100)”.

What about the Average of necrosis [1, 22] of the same molecule?
Its Average of necrosis is “C (C represents a percentage increase in necrosis relative to the control of 0.1-50)”.

What about the Average of necrosis [1, 23] of the same molecule?
The Average of necrosis was “C (C represents a percentage increase in necrosis relative to the control of 0.1-50)”.

What about the Average of necrosis [1, 24] of the same molecule?
The Average of necrosis was “C (C represents a percentage increase in necrosis relative to the control of 0.1-50)”.

What about the Average of necrosis [1, 25] of the same molecule?
The Average of necrosis was “B (B represents a percentage inhibition of 50-80)”.

What about the Average of necrosis [1, 26] of the same molecule?
Its Average of necrosis is “B (B represents a percentage inhibition of 50-80)”.

And the Average of necrosis [1, 27]?
The Average of necrosis was “B (B represents a percentage inhibition of 50-80)”.

What about the Average of necrosis [1, 28] of the same molecule?
The Average of necrosis was “A (A represents a percentage inhibition of 80-100)”.

What about the Average of necrosis [1, 29] of the same molecule?
Its Average of necrosis is “C (C represents a percentage increase in necrosis relative to the control of 0.1-50)”.

And the Average of necrosis [1, 30]?
Its Average of necrosis is “C (C represents a percentage increase in necrosis relative to the control of 0.1-50)”.

What about the Average of necrosis [1, 31] of the same molecule?
The Average of necrosis was “C (C represents a percentage increase in necrosis relative to the control of 0.1-50)”.

And the Average of necrosis [1, 32]?
Its Average of necrosis is “C (C represents a percentage increase in necrosis relative to the control of 0.1-50)”.

What about the Average of necrosis [1, 33] of the same molecule?
Its Average of necrosis is “A (A represents a percentage inhibition of 80-100)”.

What about the Average of necrosis [1, 34] of the same molecule?
Its Average of necrosis is “A (A represents a percentage inhibition of 80-100)”.

What about the Average of necrosis [1, 35] of the same molecule?
Its Average of necrosis is “A (A represents a percentage inhibition of 80-100)”.

And the Average of necrosis ([2]; 12.5 g/ha, day 1 post application)?
Its Average of necrosis is “C (C represents a percentage increase in necrosis relative to the control of 0.1-50)”.

And the Average of necrosis ([2]; 12.5 g/ha, day 2 post application)?
The Average of necrosis was “C (C represents a percentage increase in necrosis relative to the control of 0.1-50)”.

And the Average of necrosis [2, 3]?
The Average of necrosis was “C (C represents a percentage increase in necrosis relative to the control of 0.1-50)”.

And the Average of necrosis [2, 4]?
The Average of necrosis was “C (C represents a percentage increase in necrosis relative to the control of 0.1-50)”.

What about the Average of necrosis [2, 5] of the same molecule?
Its Average of necrosis is “C (C represents a percentage increase in necrosis relative to the control of 0.1-50)”.

And the Average of necrosis [2, 6]?
Its Average of necrosis is “C (C represents a percentage increase in necrosis relative to the control of 0.1-50)”.

And the Average of necrosis [2, 7]?
Its Average of necrosis is “B (B represents a percentage inhibition of 50-80)”.

And the Average of necrosis [2, 8]?
Its Average of necrosis is “C (C represents a percentage increase in necrosis relative to the control of 0.1-50)”.

And the Average of necrosis [2, 9]?
Its Average of necrosis is “C (C represents a percentage increase in necrosis relative to the control of 0.1-50)”.

What about the Average of necrosis [2, 10] of the same molecule?
The Average of necrosis was “C (C represents a percentage increase in necrosis relative to the control of 0.1-50)”.

And the Average of necrosis [2, 11]?
The Average of necrosis was “C (C represents a percentage increase in necrosis relative to the control of 0.1-50)”.

And the Average of necrosis [2, 12]?
The Average of necrosis was “C (C represents a percentage increase in necrosis relative to the control of 0.1-50)”.

What about the Average of necrosis [2, 13] of the same molecule?
The Average of necrosis was “C (C represents a percentage increase in necrosis relative to the control of 0.1-50)”.

And the Average of necrosis [2, 14]?
Its Average of necrosis is “C (C represents a percentage increase in necrosis relative to the control of 0.1-50)”.

And the Average of necrosis [2, 15]?
The Average of necrosis was “C (C represents a percentage increase in necrosis relative to the control of 0.1-50)”.

And the Average of necrosis [2, 16]?
Its Average of necrosis is “C (C represents a percentage increase in necrosis relative to the control of 0.1-50)”.

And the Average of necrosis [2, 17]?
Its Average of necrosis is “B (B represents a percentage inhibition of 50-80)”.

And the Average of necrosis [2, 18]?
The Average of necrosis was “B (B represents a percentage inhibition of 50-80)”.

And the Average of necrosis [2, 19]?
Its Average of necrosis is “B (B represents a percentage inhibition of 50-80)”.

What about the Average of necrosis [2, 20] of the same molecule?
The Average of necrosis was “A (A represents a percentage inhibition of 80-100)”.

And the Average of necrosis [2, 21]?
Its Average of necrosis is “A (A represents a percentage inhibition of 80-100)”.

What about the Average of necrosis [2, 22] of the same molecule?
The Average of necrosis was “C (C represents a percentage increase in necrosis relative to the control of 0.1-50)”.

What about the Average of necrosis [2, 23] of the same molecule?
Its Average of necrosis is “C (C represents a percentage increase in necrosis relative to the control of 0.1-50)”.

What about the Average of necrosis [2, 24] of the same molecule?
The Average of necrosis was “C (C represents a percentage increase in necrosis relative to the control of 0.1-50)”.

And the Average of necrosis [2, 25]?
The Average of necrosis was “B (B represents a percentage inhibition of 50-80)”.

What about the Average of necrosis [2, 26] of the same molecule?
Its Average of necrosis is “B (B represents a percentage inhibition of 50-80)”.

What about the Average of necrosis [2, 27] of the same molecule?
The Average of necrosis was “B (B represents a percentage inhibition of 50-80)”.

What about the Average of necrosis [2, 28] of the same molecule?
The Average of necrosis was “B (B represents a percentage inhibition of 50-80)”.

What about the Average of necrosis [2, 29] of the same molecule?
The Average of necrosis was “C (C represents a percentage increase in necrosis relative to the control of 0.1-50)”.

What about the Average of necrosis [2, 30] of the same molecule?
The Average of necrosis was “C (C represents a percentage increase in necrosis relative to the control of 0.1-50)”.

And the Average of necrosis [2, 31]?
Its Average of necrosis is “C (C represents a percentage increase in necrosis relative to the control of 0.1-50)”.

And the Average of necrosis [2, 32]?
Its Average of necrosis is “C (C represents a percentage increase in necrosis relative to the control of 0.1-50)”.

What about the Average of necrosis [2, 33] of the same molecule?
The Average of necrosis was “C (C represents a percentage increase in necrosis relative to the control of 0.1-50)”.

And the Average of necrosis [2, 34]?
The Average of necrosis was “C (C represents a percentage increase in necrosis relative to the control of 0.1-50)”.

What about the Average of necrosis [2, 35] of the same molecule?
The Average of necrosis was “B (B represents a percentage inhibition of 50-80)”.
